Test results reported in US20260015333A1, “COMPOUNDS AND METHODS FOR INHIBITION OF THE EVOLUTION OF […]” (priority 2022, published 2026).

Assays:
Assay in all cases: Evolution assay of antibiotic resistance
Type in all cases: cell-based
S. aureus = conditions: 100 μM ARM-1, rifampicin
Excerpt: (§1) FIGS. 4A-4C depict how ARM-1 inhibits the evolution of antibiotic resistance. FIG. 4A depicts the minimum inhibitory concentration of ARM-1 in E. coli and S. aureus. FIGS. 4B-4C depict the evolution of indicated species against (FIG. 4B) rifampicin and (FIG. 4C) trimethoprim in the presence of ARM-1. Heatmaps show median MIC over time. Concentrations are indicated to the right of each plot. Each strain and antibiotic is the result of at least 12 biological replicates. Concentration of ARM-1 used against L. monocytogenes, P. aeruginosa, and S. aureus is 100 μM. Concentration of ARM-1 used against S. typhimurium is 50 μM. Populations of bacteria are grown overnight in a series of increasing antibiotic concentrations, with or without ARM-1 present. The following day, the population from the highest tolerated concentration is re-challenged with higher concentrations of antibiotic. The median MIC is determined after each 24 hour growth period as the lowest concentration of antibiotic at which at least 50% growth impairment is observed compared to an untreated population. MIC fold change is reported as the change in MIC from the first day of growth to each subsequent day.
(§2) Next, the effect of ARM-1 on the evolution of antibiotic resistance was examined. Genetic deletion of Mfd is known to reduce the rates and extent of resistance development in laboratory evolution experiments. Using an assay previously developed, the impact of ARM-1 was assessed on resistance development across diverse pathogens and in response to multiple classes of antibiotics. In these experiments, bacteria are challenged with increasing concentrations of antibiotic over a minimum of least 55 generations. Reduced resistance development in bacteria treated with ARM-1 was observed compared to those that were untreated, in all species and antibiotics tested. […] This pattern was also observed in P. aeruginosa, S. aureus, and L. monocytogenes, with ARM-1 treatment resulting in 80, […] reduction in resistance to rifampicin, respectively (FIG. 4B). […] Sequencing of relevant resistance loci over the course of treatment confirmed that these observations are due to genetic changes; many more resistance mutations arise in untreated populations compared to those treated with ARM-1 (Table 1). […] Furthermore, patient isolates of S. typhimurium, S. aureus, and P. aeruginosa which already carry resistance mutations to other antibiotics were used, and still observed a reduction in resistance development during experiments. […]
(§3) Evolution experiments were performed for the indicated strains. […] Optical densities were subsequently measured in an Epoch2 microplate spectrophotometer (BioTek). […]

S. typhimurium = conditions: challenged with rifampicin or trimethoprim, or phosphomycin; 50 μM ARM-1
Excerpt: as §1, §2, §3

L. monocytogenes = conditions: 100 μM ARM-1, rifampicin
Excerpt: as §1, §2, §3

P. aeruginosa = conditions: 100 μM ARM-1, rifampicin
Excerpt: as §1, §2, §3

For `Cc1cc(Br)ccc1-c1ccc(CNCCCN(C)C)o1` [ARM-1, N^1-((5-(4-bromo-2-methylphenyl)furan-2-yl)methyl)-N^3,N^3-dimethylpropane-1,3-diamine], the “reduction in resistance to rifampicin” value (S. aureus) was 800 FOLD, the “difference in median MIC fold change between untreated and treated” value (S. typhimurium) was ≥ 100 fold and the “reduction in resistance to rifampicin” value (L. monocytogenes) was 1000 FOLD. For the same molecule, the “reduction in resistance to rifampicin” value (P. aeruginosa) was 80 FOLD.
